Patent US11028128B2, “Inhibition of the aggregation of transthyretin by specific binding of peptides to aggregation-driving segments” (THE REGENTS OF THE UNIVERSITY OF CALIFORNIA, priority 2016, dated 2021)
Where no end group is shown, it is not given here.

Assays:
[1] = target: T1, recombinant wild type TTR (Homo sapiens, UniProt P02766); assay: TTR aggregation assay in the absence of seeds (absorbance at 400 nm); type: biochemical; settings: 1 mg/ml recombinant wild type TTR, increasing amounts of stabilizer, 4 days
T1 construct: made in house; host or cells: E. coli
Experimental: Next we tested the ability of compounds and mutations that stabilize native, tetrameric TTR to halt amyloid formation induced by disease-related amyloid seeds. […] For these aggregation assays, we incubated 1 mg/ml recombinant wild type TTR with increasing amounts of stabilizers.
TTR aggregation assays are described previously (32). […] Protein aggregation was followed by absorbance at 400 nm, anti-TTR immuno-dot blot of the insoluble fraction, and/or transmission electron microscopy.

[2] = target: recombinant wild type TTR and ATTR-D38A seeds (Homo sapiens, UniProt P02766); settings: 0.5 mg/ml recombinant TTR, 30 ng/μl ATTR-D38A seeds, increasing compound concentrations
Experimental: (§1) Fibril extracts were used to seed the formation of new aggregates from recombinant TTR. In order to further purify the extracts, they were treated with 1% sodium dodecyl sulfate and the soluble fraction was discarded after centrifugation at 13,000 rpm for 5 minutes. This process was repeated two times. The sample was washed with distilled water three times by centrifugation, and then sonicated in cycles of 5 seconds on, 5 seconds off, for a total of 10 minutes, at minimum intensity (18%). The protein content was measured using the Pierce™ BCA Protein Assay Kit (ThermoFisher Scientific). Seeds were added to 0.5 mg/ml recombinant TTR in a final volume of 200 μl of 5 μM thioflavin T, 10 mM Sodium Acetate pH 4.3, 100 mM KCl, and 10 mM EDTA. Unless labeled otherwise, cardiac seeds were analyzed at 30 ng/μl concentration and seeds extracted from adipose tissue were analyzed at 5 ng/μl. Thioflavin fluorescence emission was measured at 482 nm with absorption at 440 nm in a Varioskan Flash (ThermoFisher Scientific) or FLUOstar Omega (BMG LabTech) plate readers. Plates were incubated at 37° C. for 20-72 h as labeled with cycles of 9 min shake (700 rpm double orbital) and 1 min rest throughout the incubation. Measurements were taken with automatic gain if read in Varioskan Flash, or with a manual gain of 1,000 if read in FLUOstar Omega, every 10 min, bottom read. We normalized all our assays by subtracting ThT signal at initial point of incubation. Figures show ThT signal in arbitrary units (a.u.). Fibril formation was confirmed by TEM.
(§2) Amyloid seeding assays were performed as described above. 180 μM peptide was added to 0.5 mg/ml recombinant wild type TTR and 30 ng/μl ATTR-D38A seeds. Amyloid seeding was measured after 24 hour of incubation at 37° C. by ThT fluorescence. Thioflavin T signal obtained in the absence of peptide was considered 100%.

[3] = system: recombinant wild type TTR and ATTR-D38A seeds; settings: 180 μM peptide, 0.5 mg/ml recombinant wild type TTR, 30 ng/μl ATTR-D38A seeds, 37° C.; N-methylated peptide as noted in the cell
Experimental: as §1, §2

Compound	TTR aggregation in the absence of seeds [1]	fibril formation with ATTR-D38A ex-vivo seeds in presence of stabilizer [2]	B. ThT signal (20h, no inhibitor was normalized to 100%, SD = 11.42) [3]
O=C(O)c1cc(-c2ccc(F)cc2F)ccc1O [diflunisal]	considerably diminished in a dose-dependent manner	did not reduce or delay fibril formation	–
O=C(O)c1ccc2nc(-c3cc(Cl)cc(Cl)c3)oc2c1 [tafamidis]	considerably diminished in a dose-dependent manner	did not reduce or delay fibril formation	–
RRRRPFHEHAEVVFTA [TabF1]	–	–	60.45 ± 3.90 (N-me-A12) %
RRRRPYSYSTTAVVTN (not fully specified (residue 12)) [TabH1]	–	–	32.48 ± 2.39 (N-me-E11) %
